Assay results as given in US20240182513A1, “SEPARATION OF METAL IONS FROM A SAMPLE USING GLYCOLIPIDS” (ARIZONA BOARD OF REGENTS ON BEHALF OF THE UNIVERSITY OF …, priority 2021, published 2024).

Columns and labels:
[1] = Example 2.1 rhamnolipid precipitation, filtration, centrifugation: lanthanum; conditions: for Treatment 2: Rhamnolipid and Filtration Cf / Treatment 3: Rhamnolipid and Centrifugation Cc / Treatment 1: Rhamnolipid Only Cr: lanthanum concentration after treatment; for Treatment 1: Rhamnolipid Only (Rr) efficiency of removal / Treatment 2: Rhamnolipid and Filtration (Rf) efficiency of removal / Treatment 3: Rhamnolipid and Centrifugation (Rc) efficiency of removal: lanthanum
Protocol: (§1) Structural variants of synthetic glycolipids were used to show the effect of the number and length of the hydrophobic tail(s) on rhamnolipid as a chemical precipitant. […] Solutions (10 mM) were made using nanopure water (≥18 MΩ-cm) then adjusted to a pH of 6.9±0.05 with HNO3 and NaOH. These solutions were made in advance and stored in the cold room for up to one month. They were brought to room temperature before each experiment.
(§2) Three metals were tested for binding with rhamnolipid. Lead as […] (Fisher Scientific, Waltham, MA, 99% purity), was chosen to represent a metal with high rhamnolipid-metal conditional stability constant; lanthanum as La(NO3)3 6(H2O) (Sigma-Aldrich, St. Louis, MO, 99.99% purity) was chosen as a representative REE; and magnesium as Mg(NO3)2 6(H2O) (Sigma-Aldrich, St. Louis, MO, 99% purity) was chosen to represent a metal with a low rhamnolipid-metal conditional stability constant (Hogan et al., 2017). Metal solutions (5 mM) were made using nanopure water (≥18 MΩ-cm) in 20 ml glass scintillation vials. All solutions were used within 15 min to ensure minimal adsorption to the glass vial.
(§3) Three glycolipid-based treatments were evaluated to remove metal from solution: (1) the addition of glycolipid with no further treatment (gravitational precipitation), (2) the addition of a glycolipid followed by filtration or (3) the addition of a glycolipid followed by centrifugation. Each metal (Pb, La, and Mg) was evaluated separately with each of the glycolipid structures. For each experiment, a metal solution was mixed with a glycolipid solution in a 1.7 ml reaction tube at varying molar ratios of glycolipid to metal: 0:1 (glycolipid-free control), 2:1, 5:1, and 10:1. The reactions were mixed in the order of nanopure water (≥18 MΩ-cm), glycolipid solution (10 mM), then metal solution (5 mM). The metal and glycolipid solutions were continuously stirred as they were aliquoted into the reaction tubes. The experiment was performed in triplicate.
(§4) The reaction tubes were mixed overnight (16 to 24 h) and then three samples were collected from each tube to measure the effect of each of the three treatments: a glycolipid only treatment sample, a filtration treatment sample, and a centrifugation treatment sample. Briefly, for the glycolipid only treatment samples all tubes were vortexed for approximately 5 sec immediately before removing 0.1 ml into a dilution tube of 2% trace metal grade nitric acid (12 to 14 ml) to minimize the settling of particles. For the filtration samples each reaction tube was vortexed for 5 sec and then a 0.6 ml aliquot was collected with a 1 ml syringe. A GHP acrodisc disk filter (hydrophilic polypropylene membrane, 0.45 μm pore size, 25 mm disc diameter) from Pall Life Sciences (Port Washington, New York) was then placed onto the end of the syringe and the solution was pushed through the filter. The void space in the disk filter holds approximately 0.5 ml, therefore around 0.1 ml of filtrate was collected into a dilution tube. For the centrifugation sample, the remaining solution was centrifuged at 10,000 RCF for 15 min. Approximately 0.1 ml of the supernatant was aliquoted into a dilution tube. Following collection, all samples were taken for metal analysis using ICP-MS.

[2] = Example 2.1 rhamnolipid precipitation, filtration, centrifugation: lead; conditions: for Treatment 2: Rhamnolipid and Filtration Cf / Treatment 3: Rhamnolipid and Centrifugation Cc / Treatment 1: Rhamnolipid Only Cr: lead concentration after treatment; for Treatment 1: Rhamnolipid Only (Rr) efficiency of removal / Treatment 2: Rhamnolipid and Filtration (Rf) efficiency of removal / Treatment 3: Rhamnolipid and Centrifugation (Rc) efficiency of removal: lead
Protocol: as §1, §2, §3, §4

[3] = Example 2.1 rhamnolipid precipitation, filtration, centrifugation: magnesium; conditions: for Treatment 2: Rhamnolipid and Filtration Cf / Treatment 3: Rhamnolipid and Centrifugation Cc / Treatment 1: Rhamnolipid Only Cr: magnesium concentration after treatment; for Treatment 2: Rhamnolipid and Filtration (Rf) efficiency of removal / Treatment 1: Rhamnolipid Only (Rr) efficiency of removal / Treatment 3: Rhamnolipid and Centrifugation (Rc) efficiency of removal: magnesium
Protocol: as §1, §2, §3, §4

[4] = molar ratio rhamnolipid:lanthanum 2 to 1
[5] = molar ratio rhamnolipid:lead 2 to 1
[6] = molar ratio rhamnolipid:magnesium 2 to 1

CCCCCCCCCCCC(CC(=O)O)OC1O[C@@H](C)[C@H](O)[C@@H](O)[C@H]1O (some centres unmarked) [Rha C14]
Treatment 2: Rhamnolipid and Filtration Cf ([1]; molar ratio 2 to 1): 0.164 ± 0.058 mmol/L
Treatment 3: Rhamnolipid and Centrifugation Cc ([1]; molar ratio 2 to 1): 0.221 ± 0.014 mmol/L
Treatment 1: Rhamnolipid Only Cr ([1]; molar ratio 5 to 1): 0.215 ± 0.024 mmol/L
Treatment 2: Rhamnolipid and Filtration Cf ([1]; molar ratio 5 to 1): 0.044 ± 0.007 mmol/L
Treatment 3: Rhamnolipid and Centrifugation Cc ([1]; molar ratio 5 to 1): 0.094 ± 0.002 mmol/L
Treatment 1: Rhamnolipid Only Cr ([1]; molar ratio 10 to 1): 0.314 ± 0.016 mmol/L
Treatment 2: Rhamnolipid and Filtration Cf ([1]; molar ratio 10 to 1): 0.0 ± 0.000 mmol/L
Treatment 3: Rhamnolipid and Centrifugation Cc ([1]; molar ratio 10 to 1): 0.006 ± 0.001 mmol/L
Treatment 1: Rhamnolipid Only Cr [1, 4]: 0.247 ± 0.034 mmol/L
Treatment 1: Rhamnolipid Only (Rr) efficiency of removal ([1]; molar ratio 2 to 1): (16.9%)
Treatment 2: Rhamnolipid and Filtration (Rf) efficiency of removal ([1]; molar ratio 2 to 1): (44.9%)
Treatment 3: Rhamnolipid and Centrifugation (Rc) efficiency of removal ([1]; molar ratio 2 to 1): (25.8%)
Treatment 1: Rhamnolipid Only (Rr) efficiency of removal ([1]; molar ratio 5 to 1): (27.7%)
Treatment 2: Rhamnolipid and Filtration (Rf) efficiency of removal ([1]; molar ratio 5 to 1): (85.3%)
Treatment 3: Rhamnolipid and Centrifugation (Rc) efficiency of removal ([1]; molar ratio 5 to 1): (68.5%)
Treatment 2: Rhamnolipid and Filtration (Rf) efficiency of removal ([1]; molar ratio 10 to 1): 1.0 (99.9%)
Treatment 3: Rhamnolipid and Centrifugation (Rc) efficiency of removal ([1]; molar ratio 10 to 1): (98.0%)
Treatment 2: Rhamnolipid and Filtration Cf ([2]; molar ratio 2 to 1): 0.031 ± 0.030 mmol/L
Treatment 3: Rhamnolipid and Centrifugation Cc ([2]; molar ratio 2 to 1): 0.194 ± 0.006 mmol/L
Treatment 1: Rhamnolipid Only Cr ([2]; molar ratio 5 to 1): 0.315 ± 0.004 mmol/L
Treatment 2: Rhamnolipid and Filtration Cf ([2]; molar ratio 5 to 1): 0.000 ± 0.000 mmol/L
Treatment 3: Rhamnolipid and Centrifugation Cc ([2]; molar ratio 5 to 1): 0.315 ± 0.006 mmol/L
Treatment 1: Rhamnolipid Only Cr ([2]; molar ratio 10 to 1): 0.311 ± 0.008 mmol/L
Treatment 2: Rhamnolipid and Filtration Cf ([2]; molar ratio 10 to 1): 0.001 ± 0.001 mmol/L
Treatment 3: Rhamnolipid and Centrifugation Cc ([2]; molar ratio 10 to 1): 0.327 ± 0.001 mmol/L
Treatment 1: Rhamnolipid Only Cr [2, 5]: 0.278 ± 0.011 mmol/L
Treatment 1: Rhamnolipid Only (Rr) efficiency of removal ([2]; molar ratio 2 to 1): (13.3%)
Treatment 2: Rhamnolipid and Filtration (Rf) efficiency of removal ([2]; molar ratio 2 to 1): (90.2%)
Treatment 3: Rhamnolipid and Centrifugation (Rc) efficiency of removal ([2]; molar ratio 2 to 1): (39.4%)
Treatment 1: Rhamnolipid Only (Rr) efficiency of removal ([2]; molar ratio 5 to 1): (1.6%)
Treatment 2: Rhamnolipid and Filtration (Rf) efficiency of removal ([2]; molar ratio 5 to 1): (100.0%)
Treatment 3: Rhamnolipid and Centrifugation (Rc) efficiency of removal ([2]; molar ratio 5 to 1): (1.8%)
Treatment 1: Rhamnolipid Only (Rr) efficiency of removal ([2]; molar ratio 10 to 1): (3.0%)
Treatment 2: Rhamnolipid and Filtration (Rf) efficiency of removal ([2]; molar ratio 10 to 1): (99.7%)
Treatment 2: Rhamnolipid and Filtration Cf ([3]; molar ratio 2 to 1): 0.147 ± 0.045 mmol/L
Treatment 3: Rhamnolipid and Centrifugation Cc ([3]; molar ratio 2 to 1): 0.292 ± 0.008 mmol/L
Treatment 1: Rhamnolipid Only Cr ([3]; molar ratio 5 to 1): 0.300 ± 0.018 mmol/L
Treatment 2: Rhamnolipid and Filtration Cf ([3]; molar ratio 5 to 1): 0.088 ± 0.042 mmol/L
Treatment 3: Rhamnolipid and Centrifugation Cc ([3]; molar ratio 5 to 1): 0.279 ± 0.016 mmol/L
Treatment 1: Rhamnolipid Only Cr ([3]; molar ratio 10 to 1): 0.302 ± 0.017 mmol/L
Treatment 2: Rhamnolipid and Filtration Cf ([3]; molar ratio 10 to 1): 0.009 ± 0.004 mmol/L
Treatment 3: Rhamnolipid and Centrifugation Cc ([3]; molar ratio 10 to 1): 0.219 ± 0.021 mmol/L
Treatment 1: Rhamnolipid Only Cr [3, 6]: 0.291 ± 0.005 mmol/L
Treatment 2: Rhamnolipid and Filtration (Rf) efficiency of removal ([3]; molar ratio 2 to 1): (45.0%)
Treatment 2: Rhamnolipid and Filtration (Rf) efficiency of removal ([3]; molar ratio 5 to 1): (66.9%)
Treatment 2: Rhamnolipid and Filtration (Rf) efficiency of removal ([3]; molar ratio 10 to 1): (96.6%)

CCCCCCCCCCCCCCCC(CC(=O)O)OC1O[C@@H](C)[C@H](O)[C@@H](O)[C@H]1O (some centres unmarked) [Rha C18]
Treatment 2: Rhamnolipid and Filtration Cf ([1]; molar ratio 2 to 1): 0.116 ± 0.029 mmol/L
Treatment 3: Rhamnolipid and Centrifugation Cc ([1]; molar ratio 2 to 1): 0.228 ± 0.013 mmol/L
Treatment 1: Rhamnolipid Only Cr ([1]; molar ratio 5 to 1): 0.121 ± 0.009 mmol/L
Treatment 2: Rhamnolipid and Filtration Cf ([1]; molar ratio 5 to 1): 0.001 ± 0.002 mmol/L
Treatment 3: Rhamnolipid and Centrifugation Cc ([1]; molar ratio 5 to 1): 0.088 ± 0.003 mmol/L
Treatment 1: Rhamnolipid Only Cr ([1]; molar ratio 10 to 1): 0.331 ± 0.024 mmol/L
Treatment 2: Rhamnolipid and Filtration Cf ([1]; molar ratio 10 to 1): 0.004 ± 0.001 mmol/L
Treatment 3: Rhamnolipid and Centrifugation Cc ([1]; molar ratio 10 to 1): 0.051 ± 0.010 mmol/L
Treatment 1: Rhamnolipid Only Cr [1, 4]: 0.249 ± 0.009 mmol/L
Treatment 1: Rhamnolipid Only (Rr) efficiency of removal ([1]; molar ratio 2 to 1): (16.5%)
Treatment 2: Rhamnolipid and Filtration (Rf) efficiency of removal ([1]; molar ratio 2 to 1): (61.1%)
Treatment 3: Rhamnolipid and Centrifugation (Rc) efficiency of removal ([1]; molar ratio 2 to 1): (23.4%)
Treatment 1: Rhamnolipid Only (Rr) efficiency of removal ([1]; molar ratio 5 to 1): (59.4%)
Treatment 2: Rhamnolipid and Filtration (Rf) efficiency of removal ([1]; molar ratio 5 to 1): (99.5%)
Treatment 3: Rhamnolipid and Centrifugation (Rc) efficiency of removal ([1]; molar ratio 5 to 1): (70.6%)
Treatment 2: Rhamnolipid and Filtration (Rf) efficiency of removal ([1]; molar ratio 10 to 1): (98.8%)
Treatment 3: Rhamnolipid and Centrifugation (Rc) efficiency of removal ([1]; molar ratio 10 to 1): (82.8%)
Treatment 2: Rhamnolipid and Filtration Cf ([2]; molar ratio 2 to 1): 0.027 ± 0.001 mmol/L
Treatment 3: Rhamnolipid and Centrifugation Cc ([2]; molar ratio 2 to 1): 0.132 ± 0.001 mmol/L
Treatment 1: Rhamnolipid Only Cr ([2]; molar ratio 5 to 1): 0.044 ± 0.008 mmol/L
Treatment 2: Rhamnolipid and Filtration Cf ([2]; molar ratio 5 to 1): 0.000 ± 0.002 mmol/L
Treatment 3: Rhamnolipid and Centrifugation Cc ([2]; molar ratio 5 to 1): 0.005 ± 0.002 mmol/L
Treatment 1: Rhamnolipid Only Cr ([2]; molar ratio 10 to 1): 0.255 ± 0.015 mmol/L
Treatment 2: Rhamnolipid and Filtration Cf ([2]; molar ratio 10 to 1): 0.000 ± 0.001 mmol/L
Treatment 3: Rhamnolipid and Centrifugation Cc ([2]; molar ratio 10 to 1): 0.014 ± 0.001 mmol/L
Treatment 1: Rhamnolipid Only Cr [2, 5]: 0.123 ± 0.002 mmol/L
Treatment 1: Rhamnolipid Only (Rr) efficiency of removal ([2]; molar ratio 2 to 1): (54.8%)
Treatment 2: Rhamnolipid and Filtration (Rf) efficiency of removal ([2]; molar ratio 2 to 1): (90.1%)
Treatment 3: Rhamnolipid and Centrifugation (Rc) efficiency of removal ([2]; molar ratio 2 to 1): (51.6%)
Treatment 1: Rhamnolipid Only (Rr) efficiency of removal ([2]; molar ratio 5 to 1): (83.9%)
Treatment 2: Rhamnolipid and Filtration (Rf) efficiency of removal ([2]; molar ratio 5 to 1): (99.9%)
Treatment 3: Rhamnolipid and Centrifugation (Rc) efficiency of removal ([2]; molar ratio 5 to 1): (98.1%)
Treatment 1: Rhamnolipid Only (Rr) efficiency of removal ([2]; molar ratio 10 to 1): (6.2%)
Treatment 2: Rhamnolipid and Filtration (Rf) efficiency of removal ([2]; molar ratio 10 to 1): (99.9%)
Treatment 3: Rhamnolipid and Centrifugation (Rc) efficiency of removal ([2]; molar ratio 10 to 1): (94.7%)
Treatment 2: Rhamnolipid and Filtration Cf ([3]; molar ratio 2 to 1): 0.169 ± 0.015 mmol/L
Treatment 3: Rhamnolipid and Centrifugation Cc ([3]; molar ratio 2 to 1): 0.216 ± 0.002 mmol/L
Treatment 1: Rhamnolipid Only Cr ([3]; molar ratio 5 to 1): 0.215 ± 0.002 mmol/L
Treatment 2: Rhamnolipid and Filtration Cf ([3]; molar ratio 5 to 1): 0.056 ± 0.012 mmol/L
Treatment 3: Rhamnolipid and Centrifugation Cc ([3]; molar ratio 5 to 1): 0.141 ± 0.001 mmol/L
Treatment 1: Rhamnolipid Only Cr ([3]; molar ratio 10 to 1): 0.304 ± 0.001 mmol/L
Treatment 2: Rhamnolipid and Filtration Cf ([3]; molar ratio 10 to 1): 0.017 ± 0.002 mmol/L
Treatment 3: Rhamnolipid and Centrifugation Cc ([3]; molar ratio 10 to 1): 0.107 ± 0.004 mmol/L
Treatment 1: Rhamnolipid Only Cr [3, 6]: 0.265 ± 0.002 mmol/L
Treatment 1: Rhamnolipid Only (Rr) efficiency of removal ([3]; molar ratio 2 to 1): (12.1%)
Treatment 2: Rhamnolipid and Filtration (Rf) efficiency of removal ([3]; molar ratio 2 to 1): (37.0%)
Treatment 3: Rhamnolipid and Centrifugation (Rc) efficiency of removal ([3]; molar ratio 2 to 1): (20.5%)
Treatment 1: Rhamnolipid Only (Rr) efficiency of removal ([3]; molar ratio 5 to 1): (19.5%)
Treatment 2: Rhamnolipid and Filtration (Rf) efficiency of removal ([3]; molar ratio 5 to 1): (79.0%)
Treatment 3: Rhamnolipid and Centrifugation (Rc) efficiency of removal ([3]; molar ratio 5 to 1): (47.4%)
Treatment 2: Rhamnolipid and Filtration (Rf) efficiency of removal ([3]; molar ratio 10 to 1): (93.7%)
Treatment 3: Rhamnolipid and Centrifugation (Rc) efficiency of removal ([3]; molar ratio 10 to 1): (60.1%)
